Results published in PubChem BioAssay (NCI).
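These data come from cells grown in 96-well plates and exposed to compound for 48 hours at five concentrations. Abbreviation: GI50, concentration required for 50% inhibition of growth. TGI: concentration producing complete growth inhibition.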

Key:
Test in all cases: NCI tumour cell line growth inhibition, 48 h
786-0 renal = tested on: 786-0 renal
A498 renal = tested on: A498 renal
A549 NSCLC = tested on: A549 NSCLC
ACHN renal = tested on: ACHN renal
BT-549 breast = tested on: BT-549 breast
CAKI-1 renal = tested on: CAKI-1 renal
CCRF-CEM leukemia = tested on: CCRF-CEM leukemia
COLO 205 colon = tested on: COLO 205 colon
DU-145 prostate = tested on: DU-145 prostate
HCC-2998 colon = tested on: HCC-2998 colon
HCT-116 colon = tested on: HCT-116 colon
HCT-15 colon = tested on: HCT-15 colon
HL-60(TB) leukemia = tested on: HL-60(TB) leukemia
HOP-62 NSCLC = tested on: HOP-62 NSCLC
HOP-92 NSCLC = tested on: HOP-92 NSCLC
HS 578T breast = tested on: HS 578T breast
HT29 colon = tested on: HT29 colon
IGROV1 ovarian = tested on: IGROV1 ovarian
K-562 leukemia = tested on: K-562 leukemia
KM12 colon = tested on: KM12 colon
LOX IMVI melanoma = tested on: LOX IMVI melanoma
M14 melanoma = tested on: M14 melanoma
MALME-3M melanoma = tested on: MALME-3M melanoma
MCF7 breast = tested on: MCF7 breast
MDA-MB-231 breast = tested on: MDA-MB-231 breast
MDA-MB-435 = tested on: MDA-MB-435
MOLT-4 leukemia = tested on: MOLT-4 leukemia
NCI-H226 lung = tested on: NCI-H226 lung
NCI-H23 lung = tested on: NCI-H23 lung
NCI-H460 lung = tested on: NCI-H460 lung
NCI-H522 lung = tested on: NCI-H522 lung
NCI/ADR-RES ovarian = tested on: NCI/ADR-RES ovarian
OVCAR-3 ovarian = tested on: OVCAR-3 ovarian
OVCAR-4 ovarian = tested on: OVCAR-4 ovarian
OVCAR-5 ovarian = tested on: OVCAR-5 ovarian
OVCAR-8 ovarian = tested on: OVCAR-8 ovarian
PC-3 prostate = tested on: PC-3 prostate
RPMI-8226 leukemia = tested on: RPMI-8226 leukemia
RXF 393 renal = tested on: RXF 393 renal
SF-268 CNS = tested on: SF-268 CNS
SF-295 CNS = tested on: SF-295 CNS
SF-539 CNS = tested on: SF-539 CNS
SK-MEL-2 melanoma = tested on: SK-MEL-2 melanoma
SK-MEL-28 melanoma = tested on: SK-MEL-28 melanoma
SK-MEL-5 melanoma = tested on: SK-MEL-5 melanoma
SK-OV-3 ovarian = tested on: SK-OV-3 ovarian
SN12C renal = tested on: SN12C renal
SNB-19 CNS = tested on: SNB-19 CNS
SNB-75 CNS = tested on: SNB-75 CNS
SR leukemia = tested on: SR leukemia
SW-620 colon = tested on: SW-620 colon
T-47D breast = tested on: T-47D breast
TK-10 renal = tested on: TK-10 renal
U251 CNS = tested on: U251 CNS
UACC-257 melanoma = tested on: UACC-257 melanoma
UACC-62 melanoma = tested on: UACC-62 melanoma
UO-31 renal = tested on: UO-31 renal

Cc1[nH]nc2c1N=C(c1ccccc1F)c1cc(C(N)=O)ccc1N2
GI50 (786-0 renal): 2.82 µM
TGI (786-0 renal): > 25 µM
GI50 (A498 renal): 1.08 µM
TGI (A498 renal): 6.02 µM
GI50 (A549 NSCLC): 7.56 µM
TGI (A549 NSCLC): > 25 µM
GI50 (ACHN renal): 3.3 µM
TGI (ACHN renal): > 22.9 µM
GI50 (BT-549 breast): 2.9 µM
TGI (BT-549 breast): 12.8 µM
GI50 (CAKI-1 renal): 3.83 µM
TGI (CAKI-1 renal): > 19.7 µM
GI50 (CCRF-CEM leukemia): 1.15 µM
TGI (CCRF-CEM leukemia): > 14.9 µM
GI50 (COLO 205 colon): 2.3 µM
TGI (COLO 205 colon): 6.61 µM
GI50 (DU-145 prostate): 6.71 µM
TGI (DU-145 prostate): > 25 µM
GI50 (HCC-2998 colon): 8.51 µM
TGI (HCC-2998 colon): > 25 µM
GI50 (HCT-116 colon): 1.02 µM
TGI (HCT-116 colon): > 25 µM
GI50 (HCT-15 colon): 4.69 µM
TGI (HCT-15 colon): > 25 µM
GI50 (HL-60(TB) leukemia): 5.97 µM
TGI (HL-60(TB) leukemia): 14.4 µM
GI50 (HOP-62 NSCLC): 3.79 µM
TGI (HOP-62 NSCLC): 24.4 µM
GI50 (HOP-92 NSCLC): 7.12 µM
TGI (HOP-92 NSCLC): > 25 µM
GI50 (HS 578T breast): 0.511 µM
TGI (HS 578T breast): 7.25 µM
GI50 (HT29 colon): 4.92 µM
TGI (HT29 colon): > 25 µM
GI50 (IGROV1 ovarian): 8.29 µM
TGI (IGROV1 ovarian): > 22.5 µM
GI50 (K-562 leukemia): 1.72 µM
TGI (K-562 leukemia): > 25 µM
GI50 (KM12 colon): 1.32 µM
TGI (KM12 colon): > 16.3 µM
GI50 (LOX IMVI melanoma): 2.04 µM
TGI (LOX IMVI melanoma): 13.2 µM
GI50 (M14 melanoma): 7.86 µM
TGI (M14 melanoma): > 25 µM
GI50 (MALME-3M melanoma): 18.3 µM
TGI (MALME-3M melanoma): > 25 µM
GI50 (MCF7 breast): 0.592 µM
TGI (MCF7 breast): > 20 µM
GI50 (MDA-MB-231 breast): 6.8 µM
TGI (MDA-MB-231 breast): > 25 µM
GI50 (MDA-MB-435): 7.35 µM
TGI (MDA-MB-435): > 25 µM
GI50 (MOLT-4 leukemia): 6.63 µM
TGI (MOLT-4 leukemia): 22 µM
GI50 (NCI-H226 lung): 0.852 µM
TGI (NCI-H226 lung): 6.38 µM
GI50 (NCI-H23 lung): 6.85 µM
TGI (NCI-H23 lung): > 25 µM
GI50 (NCI-H460 lung): 3.33 µM
TGI (NCI-H460 lung): > 25 µM
GI50 (NCI-H522 lung): 2.19 µM
TGI (NCI-H522 lung): > 19.6 µM
GI50 (NCI/ADR-RES ovarian): > 25 µM
TGI (NCI/ADR-RES ovarian): > 25 µM
GI50 (OVCAR-3 ovarian): 2.14 µM
TGI (OVCAR-3 ovarian): > 20.1 µM
GI50 (OVCAR-4 ovarian): 5.25 µM
TGI (OVCAR-4 ovarian): > 25 µM
GI50 (OVCAR-5 ovarian): 9.61 µM
TGI (OVCAR-5 ovarian): > 22.3 µM
GI50 (OVCAR-8 ovarian): 5.77 µM
TGI (OVCAR-8 ovarian): > 25 µM
GI50 (PC-3 prostate): 2.26 µM
TGI (PC-3 prostate): > 25 µM
GI50 (RPMI-8226 leukemia): > 25 µM
TGI (RPMI-8226 leukemia): > 25 µM
GI50 (RXF 393 renal): 0.975 µM
TGI (RXF 393 renal): 6.15 µM
GI50 (SF-268 CNS): 2.22 µM
TGI (SF-268 CNS): 8.46 µM
GI50 (SF-295 CNS): 1.28 µM
TGI (SF-295 CNS): 24.9 µM
GI50 (SF-539 CNS): 0.621 µM
TGI (SF-539 CNS): 3.54 µM
GI50 (SK-MEL-2 melanoma): 2.45 µM
TGI (SK-MEL-2 melanoma): 7.14 µM
GI50 (SK-MEL-28 melanoma): 5.79 µM
TGI (SK-MEL-28 melanoma): > 24.1 µM
GI50 (SK-MEL-5 melanoma): 3.11 µM
TGI (SK-MEL-5 melanoma): 9.03 µM
GI50 (SK-OV-3 ovarian): 6.43 µM
TGI (SK-OV-3 ovarian): > 25 µM
GI50 (SN12C renal): 4.2 µM
TGI (SN12C renal): > 25 µM
GI50 (SNB-19 CNS): 6.43 µM
TGI (SNB-19 CNS): > 25 µM
GI50 (SNB-75 CNS): 0.0838 µM
TGI (SNB-75 CNS): 1.69 µM
GI50 (SR leukemia): 0.191 µM
TGI (SR leukemia): 8.2 µM
GI50 (SW-620 colon): 2.34 µM
TGI (SW-620 colon): > 25 µM
GI50 (T-47D breast): 2.89 µM
TGI (T-47D breast): > 15.8 µM
GI50 (TK-10 renal): 3.61 µM
TGI (TK-10 renal): 16.3 µM
GI50 (U251 CNS): 0.71 µM
TGI (U251 CNS): 10.2 µM
GI50 (UACC-257 melanoma): 9.15 µM
TGI (UACC-257 melanoma): > 25 µM
GI50 (UACC-62 melanoma): 4.11 µM
TGI (UACC-62 melanoma): 9.17 µM
GI50 (UO-31 renal): 4.31 µM
TGI (UO-31 renal): > 21.1 µM
